7 compounds from ChEMBL document CHEMBL1275281, “Synthesis, anti-inflammatory evaluation and docking studies of some new fluorinated fused quinazolines” (2010) can be followed below.

As usually defined, the inhibition in vivo is the relative decrease from the control value, in per cent.

The test system of assay [1] is Rattus norvegicus. Kind of assay: Antiinflammatory activity in Wistar rat assessed as inhibition of carrageenan-induced paw edema at 10 mg/kg, po administered 1 hr before carrageenan challenge and measured 4 hrs post carrageenan challenge relative to untreated control. Format: functional.
Assay [2] relates to Rattus norvegicus. Kind of assay: Antiinflammatory activity in Wistar rat assessed as inhibition of carrageenan-induced paw edema at 10 mg/kg, po administered 1 hr before carrageenan challenge and measured 2 hrs post carrageenan challenge relative to untreated control. The format is functional.

Turning to `NC(=O)c1c(-c2ccccc2)cc(C(F)(F)F)c2c1N=C(c1ccco1)N1CCN=C21`, the inhibition in vivo at 10 mg/kg with Rattus norvegicus [1] was found to be 30%; in the assay on Rattus norvegicus [2], 31%.
In the case of `NC(=O)c1c(C(F)(F)F)cc(-c2ccccc2)c2c1N=C(c1ccco1)N1CCN=C21`, the inhibition in vivo at 10 mg/kg stood at 28% in the assay on Rattus norvegicus [1] and 29% in the assay with Rattus norvegicus [2].
Regarding `NC(=O)c1c(-c2ccccc2)cc(C(F)(F)F)c2c1N=C(c1ccc(O)cc1)N1CCN=C21`, the inhibition in vivo at 10 mg/kg in the assay on Rattus norvegicus [1] came to 60%; in the assay on Rattus norvegicus [2], 61%.
With `NC(=O)c1c(C(F)(F)F)cc(-c2ccccc2)c2c1N=C(c1ccc(O)cc1)N1CCN=C21`, the inhibition in vivo at 10 mg/kg with Rattus norvegicus [1] came out at 57%; in the assay on Rattus norvegicus [2], 59%.
For `NC(=O)c1c(-c2ccccc2)cc(C(F)(F)F)c2c1N=C(c1cccs1)N1CCN=C21`, in that order: 24% and 25%.
Regarding `NC(=O)c1c(C(F)(F)F)cc(-c2ccccc2)c2c1N=C(c1cccs1)N1CCN=C21`, the inhibition in vivo at 10 mg/kg in the assay with Rattus norvegicus [1] is 33%; in the assay with Rattus norvegicus [2], 34%.
For `COc1ccc2c(c1)c(CC(=O)O)c(C)n2C(=O)c1ccc(Cl)cc1` [INDOMETHACIN], in that order: 75% and 79%.
